# Laboratory results reported in patent US20250082695A1, “USE OF GLYCEROL FOR INCREASING BUTYRATE PRODUCTION BY BACTERIA IN A CONSORTIUM” (PHARMABIOME AG, priority 2019, published 2025).
# Assays:
# Assay type in all cases: cell-based
# [1] = test system: bacterial consortium PB010; experiment: Continuous co-culture, relative end metabolite concentrations on day 2 and 8 (glycerol supplemented after day 2), PB010; conditions: PB010 (n=3), glycerol supplemented after day 2, day 8 vs day 2
# Procedure: (§1) FIG. 5: Relative end metabolite concentration of the continuously co-cultured bacterial consortia PB002 (n=2) and PB010 (n=3) in bioreactors on day 2 and 8 of co-cultivation. All bioreactors were cultivated for 48 hours in a medium without glycerol.
# (§2) The bacterial consortium PB002 and the bacterial consortium PB010 were continuously cultured in bioreactors. Relative end metabolite concentrations were determined on day 2 and 8 of co-cultivation.
# (§3) All bioreactors were cultivated for 48 hours in a medium without glycerol.
# [2] = test system: bacterial consortium PB002; experiment: Continuous co-culture of consortium PB002 in a bioreactor, daily metabolite concentrations before and after glycerol supplementation; conditions: PB002, addition of 30 mM glycerol at day 38 of continuous culture
# Description: FIG. 1: Daily metabolite concentration of the continuously co-cultured bacterial consortium PB002 in a bioreactor before and after the supplementation of glycerol. Day of sampling from day 30 to day 55 after inoculation are represented on the x-axis and the concentrations of acetate, propionate, butyrate, formate, lactate, and succinate indicated in mM on the y-axis.
# The concentrations of the produced metabolites were quantified by refractive index detection HPLC (Thermo Scientific Accela™, ThermoFisher Scientific; HPLC-RI)). […] Bacteria cultures to be analyzed were centrifuged at 14.000-x g for 10 min at 4° C. Filter-sterilized ([…]) supernatants were analyzed. […] Peaks were analyzed using AgilentEzChrome Elite software (Version: 3.3.2 SP2, Agilent Technologies, Inc. Pleasanton, USA). […]
# (§4) The bioreactor was consecutively operated at pH 6.0 for 24 h in order to allow growth of primary degraders and subsequent consumption of the produced intermediate metabolites. Growth was monitored by base consumption and optical density. Metabolites were monitored using HPLC-RI as described above. […]
# The consortium PB002 was continuously cultured in a bioreactor during 55 days. Metabolite concentrations were measured daily before and after glycerol supplementation (addition of 30 mM glycerol) at day 38.
# [3] = test system: bacterial consortium PB002; experiment: Continuous co-culture, relative end metabolite concentrations on day 2 and 8 (glycerol supplemented after day 2), PB002; conditions: PB002 (n=2), glycerol supplemented after day 2, day 8 vs day 2
# Procedure: as §1, §2, §3
# [4] = test system: butyrate producing strains of group A6; experiment: qPCR quantification of absolute abundances of PB002 strains during continuous culture; conditions: glycerol supplementation
# Description: FIG. 2: Absolute abundances of all strains of the continuously cultured consortium PB002 in a bioreactor before and after the supplementation of glycerol. Abundances were quantified using qPCR and are indicated in copies of the 16S rRNA gene/ml of culture for the strains representing A1, A2, A3, A4, A5, A6, A7, A8, and A9.
# To test maintenance of all bacterial strains of exemplary consortia PB002 and PB010 in the culture over time, qPCR quantification of the single strains of each consortium was performed using the primers listed in Table 3.
# DNA from pellets of the fermentation effluent was extracted using the FastDNA™ SPIN Kit for Soil (MP Bio). Genomic DNA extracts were 10-fold diluted using DNA-free H2O. qPCRs were performed using Mastermix SYBR® green 2× and LowRox (Kapa Biosystems), primers (10 μM) and DNA-free H2O were used in a ABI 7500 FAST thermal cycler (Applied Biosystems) as recommended by the producer and quantified using standards of amplified whole 16S rRNA gene amplicon sequences of the strains cloned into the pGEMT easy vector (Promega, Madison WI, USA). Amplification of the whole 16S rRNA gene was performed with a combination of whole 16S rRNA gene amplification primers using one forward and one reverse primer from the primers listed in Table 4. qPCR quantification of the single strains is shown in copies of genomic 16S rRNA gene per ml of culture (FIG. 2). […]
# [5] = test system: bacterial consortium PB010; experiment: Continuous co-culture of consortium PB010 in bioreactors with and without glycerol, absolute metabolite concentrations; conditions: PB010, medium with 30 mM glycerol vs without, day 8 after inoculation
# Description: FIG. 4: Absolute metabolite concentration of the continuously co-cultured bacterial consortium PB010 in a bioreactor at day 8 after inoculation: (1) cultured in a culture medium without glycerol, (2) cultured in a culture medium supplemented with glycerol. Absolute metabolites of the two reactors are represented on the x-axis and the concentrations of acetate, propionate, and butyrate are indicated in mM on the y-axis.
# The concentrations of the produced metabolites were quantified by refractive index detection HPLC (Thermo Scientific Accela™, ThermoFisher Scientific; HPLC-RI)). HPLC-RI analysis was performed using a SecurityGuard Cartridges Carbo-H (4×3.0 mm) (Phenomenex, Torrence, USA) as guard-column connected to a Rezex ROA-Organic Acid H+ column (300×7.8 mm) (Phenomenex). Bacteria cultures to be analyzed were centrifuged at 14.000-x g for 10 min at 4° C. Filter-sterilized ([…]) supernatants were analyzed. Injection volume for each sample was […]. […] Peaks were analyzed using AgilentEzChrome Elite software (Version: 3.3.2 SP2, Agilent Technologies, Inc. Pleasanton, USA). […]
# as §4
smiles,measurement,setting,value
OCC(O)CO [glycerol],butyrate production (relative end metabolite concentration),[1],increase in butyrate production
same,"accumulation of the intermediate metabolites formate, lactate, succinate",[2],no accumulation
same,butyrate production of the consortium,[2],enhanced butyrate production immediately
same,butyrate production (relative end metabolite concentration),[3],increase in butyrate production
same,abundance of butyrate producing strains of group A6 (16S rRNA gene copies/ml),[4],positively affects abundance
same,"accumulation of succinate, lactate or formate",[5],no accumulation
same,butyrate production of the consortium,[5],stimulates butyrate production
